Assay results taken from US20240300943A1, “NOVEL SALTS OF HETEROCYCLIC COMPOUND AS PROTEIN KINASE INHIBITOR AND USES THEREOF” (HK INNO.N CORPORATION, priority 2021, published 2024).
Blank lines part the entries; values can stand above or below the molecule they belong to.

Tests used:
[1] = test system: HDM-induced animal model (NC/Nga mice); test: HDM-induced atopic dermatitis model (topical); type: in vivo
Method: After the back of the ears and neck of the NC/Nga mice was shaved with a razor, a proper amount of depilatory was applied and depilation was performed. After the depilatory was wiped out, about 100 mg of an atopic dermatitis-inducing reagent (Biostir, Japan) was uniformly applied to the back of the ears and neck using a micro pipette tip.
After hair removal was performed using a razor as needed, 150 μL of 4% SDS aqueous solution was uniformly applied to the back of the ears and neck using a micro pipette. After drying with cold air using a dryer, the solution was naturally dried for about two to three hours. About 100 mg of the AD-inducing reagent was uniformly applied to the back of the ears and neck using a micro pipette tip. All treatments were performed 11 times twice a week for a total of six weeks.
As a test material, an appropriate amount of phosphate in Compound 1 obtained according to Example 3 was weighed and then prepared by dissolving in a local vehicle (acetone:DMSO-7:1 v/v). At the time of preparation and administration, the test material was maintained in a light-shielding state, and was prepared and used every three days under the conditions of light-shielding refrigeration.
The administration of the test material was started from the time when the atopic score reached 2.1 to 2.3 points, and was directly applied to the center of the skin twice/day until the day of autopsy from the start date of administration of the test material (Day 0) for three weeks.
The AD-inducing material was applied and sensitized 24 hours before the autopsy, and the drug was administered and applied one hour before the autopsy. […]
To evaluate atopic dermatitis, evaluation of a skin clinical index (Matsuda et al., 1997) was performed from week 0 of the onset of atopic dermatitis. […] After that, the sum of the scores for each item was evaluated as a final grade.
An IgE concentration in blood was analyzed with serum obtained by centrifuging the blood collected on the day of autopsy, and IL-1B, IL-4, IL-13, TNF-α, IL-6, and IL-31 were analyzed using the extracted skin. […]

JAK1, 3 = test: In vitro cell assay, JAK1, 3 (NK-92 cells, IL-2); type: cell-based; details: NK92, read-out: IC50, Cell Biology JAK1, 3
Method: In addition, NK-92 cell is a natural killer cell line, which grows in an IL-2-dependent way, and is derived from peripheral blood mononuclear cells, and thus is suitable for evaluating the activity of JAK1 and JAK3 by IL-2. Thus, in order to evaluate the activity of JAK1 and JAK3, NK-92 cells were prepared.
The test material was dissolved in DMSO, prepared at 10 mM, divided by 20 μL each, and stored at −20° C.
• EPO: 2000 U/0.5 mL of stock was divided by 50 μL each and stored under refrigeration. • IL-2: 200 μg/ml of stock was prepared, divided by 5 μL each, and stored, and then treated at 2 ng/ml. (IL-2 1 μg/ml=13000 U/ml) • IFN-alphaB2: […] of stock was diluted and used, and then treated to reach 30000 U/ml.
• UT-7/EPO cell assay: MEM-alpha (Gibco, cat #12561-056) was prepared to contain 5% FBS and 1% P/S before use. • NK-92 cell assay: A preparation was made to contain HBSS, 1% FBS and 1% P/S before use. • U2OS cell assay: A preparation was made to contain HBSS, 1% FBS and 1% P/S before use.
The cultured cells were centrifuged (1,000 rpm, 5 minutes) and washed with PBS. The size of cell lines and appropriate reaction concentration thereof were set and the cell lines were seeded in a 96-well plate at 1×10^5 to 10^6 cells/well (50 μL/well). […]

[2] = test system: DNBS-induced animal model (IBD rat model); test: DNBS-induced colitis model; type: in vivo; details: oral, once a day, four weeks, FIG. 26
Method: Before induction of colitis with DNBS every week, experimental animals were fasted for 24 hours. Fasted animals were lightly anesthetized with isoflurane, catheter tubes with a length of 8 cm were inserted into the rat anus, and then colitis was induced by slowly injecting 250 μL of DNBS [15 mg (1st week), 30 mg (2nd week), 45 mg (3rd week) and 60 mg (4th week) in 250 μL of 50% ethanol] solution using a syringe pump at a rate of 100 μL/min. After the injection of the solution, a head-down posture was maintained for one minute so that the solution may spread evenly in the animal's intestines and may not leak out of the body. […]
The large intestine tissue extracted from the sacrificed experimental animals was photographed to measure the length of the large intestine. The length of the large intestine was measured from the taken picture using an image program (Leica Application Suite V4). […] The measured weight and length were used to convert the large intestine ratio (mg/cm) (=large intestine weight (mg)/large intestine length (cm)).
Calprotectin & c-reactive protein (CRP) and IFN-γ from serum collected at autopsy were analyzed by ELISA. […]

SMILES: C[C@@H]1CN(C(=O)CC#N)CC=C1c1cc(NC(=O)C2CC2)nc2[nH]ccc12 [Example 3, (S)—N-(4-(1-(2-cyanoacetyl)-3-methyl-1,2,3,6-tetrahydropyridin-4-yl)-1H-pyrrolo[2,3-b]pyridin-6-yl)cyclopropanecarboxamide]
Skin severity scores (clinical atopic dermatitis score) ([1]; twice/day for three weeks, all dosed groups, FIG. 28): significantly reduced

IC50 (JAK1, 3): 0.163 µM
SMILES: C[C@@H]1CN(C(=O)CC#N)CC=C1c1cc(NC(=O)C2CC2)nc2[nH]ccc12 [Compound 1, (S)—N-(4-(1-(2-cyanoacetyl)-3-methyl-1,2,3,6-tetrahydropyridin-4-yl)-1H-pyrrolo[2,3-b]pyridin-6-yl)cyclopropanecarboxamide]
Atopic dermatitis-related cytokines ([1]; skin, FIG. 30): decrease in atopic dermatitis-related cytokines
Serum IgE levels ([1]; twice/day for three weeks, FIG. 29): decreased compared to the control group
Efficacy in IBD rat model [2]: exhibits efficacy in an IBD rat model
Level of proinflammatory cytokines compared to the control group (vehicle) [2]: significantly lower level of proinflammatory cytokines
